# Data: article PMC6270026, “Antibacterial and Herbicidal Activity of Ring-Substituted 2-Hydroxynaphthalene-1-carboxanilides” (Molecules, 2013)
# Where two headings read alike, the source gives them in different places.
# Columns and labels:
# [1] = system: Mycobacterium marinum CAMP 5644; assay: In vitro antimycobacterial evaluation (broth dilution MIC); type: cell-based; conditions: for MIC: Mycobacterium marinum, CAMP5644, 504 h, M. marinum CAMP 5644, 21 days, 28 °C
# [2] = system: human monocytic leukemia THP-1 cells; assay: In vitro cytotoxicity assay (LDH); type: cell-based; conditions: treatment with 20 µmol/L, 24 h
# Method: Human monocytic leukemia THP-1 cells were obtained from the European Collection of Cell Cultures (ECACC, Salisbury, UK; Methods of characterization: DNA Fingerprinting (Multilocus probes) and isoenzyme analysis). These cells were routinely cultured in RPMI 1640 (Lonza, Verviers, Belgium) medium supplemented with 10% fetal bovine serum (FBS, Sigma-Aldrich), 2% L-glutamine, 1% penicillin and streptomycin (Lonza, Verviers, Belgium) at 37 °C with 5% CO2. Cells were passaged at approximately 1 week intervals. Cells were routinely tested for the absence of mycoplasma (Hoechst 33258 staining method). The tested compounds were dissolved in DMSO (Sigma-Aldrich) and added in five increasing concentrations to the cell suspension in the culture medium. The maximum concentration of DMSO in the assays never exceeded 0.1%. Subsequently, the cells were incubated for 24 h at 37 °C with 5% CO2 to various compound concentrations ranging from 0.37 to 20 μmol/L in RPMI 1640 medium. Cell toxicity was determined using a Cytotoxicity Detection Kit^PLUS Lactate dehydrogenase (LDH) assay kit (Roche Diagnostics, Mannheim, Germany) according to the manufacturer’s instructions, as described previously. […] All data were evaluated using GraphPad Prism 5.00 software (GraphPad Software, San Diego, CA, USA).
# [3] = Lipophilicity determination by RP-HPLC (capacity factor log k); type: physicochemical; conditions: isocratic, MeOH 60%/H2O 40%, C18
# Method: A HPLC system Agilent 1200 equipped with DAD detector (Agilent, Santa Clara, CA, USA) was used. A chromatographic column Symmetry® C18 5 μm, 4.6 × 250 mm, Part No. WAT054275, (Waters Corp., Milford, MA, USA) was used. The HPLC separation process was monitored and evaluated by EZChrom Elite software ver. 3.3.2 (Agilent). Isocratic elution by a mixture of MeOH p.a. (60%) and H2O-HPLC Mili-Q grade (40%) as a mobile phase was used. The total flow of the column was 1.0 mL/min, injection 20 μL, column temperature 40 °C and sample temperature 10 °C. The detection wavelength 210 nm was chosen. The KI methanolic solution was used for the dead time (tD) determination. Retention times (tR) were measured in minutes. The capacity factors k were calculated according to formula k = (tR − tD)/tD, where tR is the retention time of the solute, whereas tD denotes the dead time obtained using an unretained analyte. Log k, calculated from the capacity factor k, is used as the lipophilicity index converted to log P scale.
# [4] = system: Mycobacterium avium subsp. paratuberculosis (CIT03); assay: In vitro antimycobacterial evaluation (alamarBlue MIC); type: cell-based; conditions: 264 h, M. avium paratuberculosis CIT03, 11 days, 37 °C
# Method: A well characterised clinical isolate of Mycobacterium avium subsp. paratuberculosis (CIT03) was grown in Middlebrook broth (MB), supplemented with Oleic-Albumin-Dextrose-Catalase supplement (OADC, Becton, Dickinson & Comp., Franklin Lakes, NJ, USA) and mycobactin J (2 µg/mL). Identification of this isolate was performed using biochemical and molecular protocols. At log phase growth, a culture sample (10 mL) was centrifuged at 15,000 rpm/20 min using a bench top centrifuge (Model CR 4-12, Jouan Inc., Winchester, VA, USA). Following removal of the supernatant, the pellet was washed in fresh Middlebrook 7H9GC broth and re-suspended in fresh supplemented MB (10 mL). The turbidity was adjusted to match McFarland standard No. 1 (3 × 10^8 cfu) with MB broth. A further 1:20 dilution of the culture was then performed in MB broth. The antimicrobial susceptibility of the mycobacterial species was investigated in a 96-well plate format. In these experiments, sterile deionised water (300 µL) was added to all outer-perimeter wells of the plates to minimize evaporation of the medium in the test wells during incubation. Each evaluated compound (100 µL) was incubated with each of the mycobacterial species (100 µL). Dilutions of each compound were prepared in duplicate. For all synthesized compounds, final concentrations ranged from 1,000 µg/mL to 8 µg/mL. All compounds were prepared in DMSO and subsequent dilutions were made in supplemented MB. The plates were sealed with parafilm and incubated at 37 °C, for 11 days in the case of M. avium paratuberculosis. Following incubation, a 10% addition of alamarBlue (AbD Serotec, Kidlington, UK) was mixed into each well and readings at 570 nm and 600 nm were taken, initially for background subtraction and subsequently after 24 h re-incubation. The background subtraction is necessary for strongly coloured compounds, where the colour may interfere with the interpretation of any colour change. For non-interfering compounds, a blue colour in the well was interpreted as an absence of growth and a pink colour was scored as growth. The minimum inhibitory concentrations (MICs) were initially defined as the lowest concentration which prevented a visual colour change from blue to pink.
# The MICs were defined as the lowest concentration of the compound at which no visible bacterial growth was observed. The MIC value is routinely and widely used in bacterial assays and is a standard detection limit according to the Clinical and Laboratory Standards Institute (CLSI). Isoniazid (Sigma-Aldrich) was used as reference antimycobacterial drug.
# [5] = system: M. kansasii DSM 44162; assay: In vitro antimycobacterial evaluation (broth dilution MIC); type: cell-based; conditions: Mycobacterium kansasii, DSM44162, 168 h; M. kansasii DSM 44162, 7 days, 37 °C
# [6] = system: photosynthetic electron transport (PET) in spinach chloroplasts; assay: Inhibition of photosynthetic electron transport (PET) in spinach chloroplasts; type: biochemical, Spinacia oleracea L.; conditions: DCPIP photoreduction
# Method: Chloroplasts were prepared from spinach (Spinacia oleracea L.) according to Masarovicova and Kralova. The inhibition of photosynthetic electron transport (PET) in spinach chloroplasts was determined spectrophotometrically (Genesys 6, Thermo Electron Scientific Instruments, Madison, WI, USA), using an artificial electron acceptor 2,6-dichlorophenol-indophenol (DCPIP) according to Kralova et al., and the rate of photosynthetic electron transport was monitored as a photoreduction of DCPIP. The measurements were carried out in phosphate buffer (0.02 mol/L, pH 7.2) containing sucrose (0.4 mol/L), MgCl2 (0.005 mol/L) and NaCl (0.015 mol/L). The chlorophyll content was 30 mg/L in these experiments and the samples were irradiated (~100 W/m^2 with 10 cm distance) with a halogen lamp (250 W) using a 4 cm water filter to prevent warming of the samples (suspension temperature 22 °C). The studied compounds were dissolved in DMSO due to their limited water solubility. […] The inhibitory efficiency of the studied compounds was expressed by IC50 values, i.e., by molar concentration of the compounds causing 50% decrease in the oxygen evolution rate relative to the untreated control.
# [7] = system: methicillin-resistant Staphylococcus aureus SA 3202; assay: In vitro antibacterial susceptibility testing (broth dilution MIC); type: cell-based; conditions: MRSA, clinical isolate SA 3202, 24 h, 37 °C, read-out: MIC MRSA 3202
# Method: (§1) The synthesized compounds were evaluated for in vitro antibacterial activity against representatives of multidrug-resistant bacteria, clinical isolates of methicillin-resistant Staphylococcus aureus (MRSA) 63718, SA 630 and SA 3202 that were obtained from the National Institute of Public Health, Prague, Czech Republic. Staphylococcus aureus ATCC 29213 was used as a reference and quality control strain. Ampicillin (Sigma-Aldrich) was used as the standard. Prior to testing, each strain was passaged onto nutrient agar (Oxoid, Hampshire, UK) with 5% of bovine blood, and bacterial inocula were prepared by suspending a small portion of bacterial colony in sterile phosphate buffered saline (pH 7.2–7.3). The cell density was adjusted to 0.5 McFarland units using a densitometer (Densi-La-Meter, LIAP, Riga, Latvia). The final inoculum was made by 1:20 dilution of the suspension with the Mueller-Hinton broth (MH broth). […] The final concentrations of the evaluated compounds ranging from 256 μg/mL to 0.008 μg/mL. The broth dilution micro-method modified according to NCCLS guidelines in MH broth was used to determine the minimum inhibitory concentration (MIC). Drug-free controls, sterility controls and controls consisted of MH broth and DMSO alone were included. The determination of results was performed visually after 24 h of static incubation in the darkness at 37 °C in an aerobic atmosphere. The MICs were defined as the lowest concentration of the compound at which no visible bacterial growth was observed.
# [8] = system: methicillin-resistant Staphylococcus aureus SA 630; assay: as above; type: cell-based; conditions: MRSA, clinical isolate SA 630, 24 h, 37 °C
# Method: as §1
# [9] = design: method as in PMID 23884130; conditions: 3-hydroxynaphthalene-2-carboxanilide series; cited from earlier work
# [10] = system: methicillin-resistant Staphylococcus aureus (MRSA) 63718; assay: In vitro antibacterial susceptibility testing (broth dilution MIC); type: cell-based; conditions: clinical isolate MRSA 63718, 24 h, 37 °C
# Method: as §1
# [11] = system: Staphylococcus aureus ATCC 29213; assay: as above; type: cell-based; conditions: ATCC29213; Staphylococcus aureus ATCC 29213, 24 h, 37 °C
# Method: as §1
# [12] = system: M. smegmatis ATCC 700084; assay: In vitro antimycobacterial evaluation (broth dilution MIC); type: cell-based, Mycobacterium smegmatis; conditions: Mycolicibacterium smegmatis, ATCC700084, 72 h; M. smegmatis ATCC 700084, 3 days, 37 °C
# [13] = system: spinach chloroplasts (photosystem II); assay: Chlorophyll a and aromatic amino acids fluorescence in spinach chloroplasts; type: biochemical, Spinacia oleracea L.
# Method: The fluorescence emission spectra of chlorophyll a (Chla) and aromatic amino acids (AAA) in spinach chloroplasts were recorded on fluorescence spectrophotometer F-2000 (Hitachi, Tokyo, Japan) using excitation wavelength λex = 436 nm for monitoring fluorescence of Chla and λex = 275 nm for monitoring AAA fluorescence, excitation slit 20 nm and emission slit 10 nm. The samples were kept in the dark for 2 min before measuring. The phosphate buffer used for dilution of the chloroplast suspension was the same as described above. Due to low aqueous solubility the compounds were added to chloroplast suspension in DMSO solution. The DMSO concentration in all samples was the same as in the control (10%). The chlorophyll concentration in chloroplast suspension was 10 mg/L.
Structure (SMILES),MIC [1],fold higher activity against M. marinum than isoniazid ([1]; ratio of MIC to isoniazid),lethal effect on THP-1 cells [2],log k [3],MIC [4],MIC [5],IC50 [6],MIC [7],MIC [8],log k [9],MIC [10],MIC [11],MIC [12],"aromatic amino acids (AAA) fluorescence at 334 nm ([13]; c = 0.012-0.117 mmol/L, λex 275 nm)","chlorophyll a fluorescence emission band at 686 nm ([13]; c = 0.059-0.468 mmol/L, λex 436 nm)"
"O=C(Nc1cccc([N+](=O)[O-])c1)c1c(O)ccc2ccccc12 [Compound 8b, 2-Hydroxy-N-(3-nitrophenyl)naphthalene-1-carboxamide]",~52 µM,about 9 fold,did not lead to significant lethal effects,0.9187,405 µM,104 µM,86.4 µM,,,,,,,,
"O=C(Nc1ccccc1[N+](=O)[O-])c1c(O)ccc2ccccc12 [Compound 8a, 2-Hydroxy-N-(2-nitrophenyl)naphthalene-1-carboxamide]",104 µM,,did not lead to significant lethal effects,0.8501,195 µM,51.9 µM,121 µM,52 µM,104 µM,,,,,,
O=C(c1cc(O)cc2ccccc12)N(c1ccccc1)c1ccccc1 [3-hydroxy-N-phenylnaphthalene-1-carboxanilide],,,,,,,,,,0.6310,,,,,
"O=C(Nc1ccc(Cl)cc1)c1c(O)ccc2ccccc12 [Compound 5c, N-(4-chlorophenyl)-2-hydroxynaphthalene-1-carboxamide]",> 860 µM,,,0.7908,420 µM,53.7 µM,59.2 µM,107 µM,> 860 µM,,> 860 µM,215 µM,> 860 µM,,
"O=C(Nc1ccccc1Br)c1c(O)ccc2ccccc12 [Compound 6a, N-(2-bromophenyl)-2-hydroxynaphthalene-1-carboxamide]",> 748 µM,,,0.9509,731 µM,93.5 µM,52.2 µM,> 748 µM,> 748 µM,,> 748 µM,> 748 µM,> 748 µM,,
"COc1ccccc1NC(=O)c1c(O)ccc2ccccc12 [Compound 2a, 2-Hydroxy-N-(2-methoxyphenyl)naphthalene-1-carboxamide]",> 873 µM,,,0.5121,852 µM,> 873 µM,477 µM,> 873 µM,> 873 µM,,> 873 µM,> 873 µM,> 873 µM,,
"O=C(Nc1ccccc1)c1c(O)ccc2ccccc12 [Compound 1, 2-Hydroxy-N-phenylnaphthalene-1-carboxamide]",60.7 µM,,did not lead to significant lethal effects,1.3016,950 µM,15.2 µM,28.9 µM,,,,,,486 µM,strong decline,decreased intensity
"O=C(Nc1ccc(C(F)(F)F)cc1)c1c(O)ccc2ccccc12 [Compound 7c, 2-Hydroxy-N-(4-trifluoromethylphenyl)naphthalene-1-carboxamide]",> 748 µM,,,0.9994,731 µM,23.3 µM,29 µM,47 µM,94 µM,,94 µM,> 748 µM,> 748 µM,,
